Literature values, collected in patent publication US8703823B2, “Methods for treatment of migraine and symptoms thereof” (priority 2004, dated 2014).

Columns and labels:
[1] = individuals treated with trimethobenzamide for uncontrolled vomiting
[2] = in vivo

SMILES	Occurrence of adverse diskinesia side effects [1] [%]	Migraine prevention / antimigraine effect [2]
COc1cc(C(=O)NCc2ccc(OCCN(C)C)cc2)cc(OC)c1OC.Cl [trimethobenzamide, N-[p-[2-(dimethylamino)ethoxy]benzyl]-3,4,5-trimethoxybenzamide monohydrochloride]	< 2	–
COc1cc(N)c(Cl)cc1C(=O)NC1CCN(CCCOc2ccc(F)cc2)CC1OC (stereo not drawn) [cisapride]	–	ineffective
CCN(CC)CCNC(=O)c1cc(Cl)c(N)cc1OC [Metoclopramide, metoclopramide]	–	exerted an antimigraine effect
